Reference: PubChem BioAssay (NCI)
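Results reflect a 48-hour exposure of cells in 96-well plates to compound at five concentrations. At the GI50, growth is halved. Definition used: TGI = concentration required for complete inhibition of growth.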

Legend:
Assay in all cases: NCI-60 cell line screen, 48 h
NCI-H226 lung = system: NCI-H226 lung
ACHN renal = system: ACHN renal
SR leukemia = system: SR leukemia
U251 CNS = system: U251 CNS
SF-268 CNS = system: SF-268 CNS
HT29 colon = system: HT29 colon
OVCAR-4 ovarian = system: OVCAR-4 ovarian
KM12 colon = system: KM12 colon
PC-3 prostate = system: PC-3 prostate
MDA-MB-231 breast = system: MDA-MB-231 breast

SMILES | TGI (NCI-H226 lung) [µM] | TGI (ACHN renal) [µM] | TGI (SR leukemia) [µM] | TGI (U251 CNS) [µM] | TGI (SF-268 CNS) [µM] | TGI (HT29 colon) [µM] | TGI (OVCAR-4 ovarian) [µM] | TGI (KM12 colon) [µM] | TGI (PC-3 prostate) [µM] | TGI (MDA-MB-231 breast) [µM] | GI50 (NCI-H226 lung) [µM] | GI50 (ACHN renal) [µM] | GI50 (SR leukemia) [µM] | GI50 (U251 CNS) [µM] | GI50 (SF-268 CNS) [µM] | GI50 (OVCAR-4 ovarian) [µM] | GI50 (KM12 colon) [µM] | GI50 (PC-3 prostate) [µM] | GI50 (MDA-MB-231 breast) [µM] | GI50 (HT29 colon) [µM]
C[C@]12CC[C@H](O[C@@H]3O[C@H](CO[C@@H]4O[C@H](CO)[C@@H](O)[C@H](O)[C@H]4O)[C@@H](O)[C@H](O)[C@H]3O)C[C@@H]1CC[C@@H]1[C@@H]2CC[C@]2(C)[C@@H](C3=CC(=O)OC3)CC[C@]12O | > 95.8 | > 100 | > 100 | > 100 | 29.5 | > 100 | 57.8 | > 100 | > 100 | > 100 | – | – | – | – | – | – | – | – | – | –
Cc1ccc(N)cc1[As]=[As]c1cc(N)ccc1C (stereo not drawn) | 3.07 | 3.26 | > 25.1 | 2.69 | 3.02 | – | 2.79 | 3.81 | 3.38 | 2.82 | 1.57 | 1.67 | 0.944 | 1.35 | 1.56 | 1.42 | 1.95 | 1.71 | 1.35 | –
CC1=CC(=O)N(c2cccc3c(N4C(=O)C=C(C)C4=O)cccc23)C1=O | > 63.8 | 11 | 5.22 | 19.5 | 23.8 | 8.1 | 16.9 | 34 | 22.7 | 22.5 | 23.1 | 2.78 | 1.56 | 5.88 | 6.37 | 5.18 | 11.3 | 7.97 | 8.44 | 2.73
Cc1sc(C(=O)c2cncnc2N[C@@H]2C[C@H](COS(N)(=O)=O)[C@@H](O)C2)cc1[C@@H]1NCCc2ccc(Cl)cc21 | 25.7 | 25.7 | 26.3 | 26.7 | 32.4 | 20.9 | 31.1 | 28.3 | 24.5 | 24.8 | 10.3 | 11.8 | 0.547 | 10.9 | 14.4 | 4.38 | 13.1 | 5.44 | 9.29 | 0.234
Cn1ncc(C#N)c1-c1ccc2c(c1)CN([C@H](CN)Cc1cccc(F)c1)C2=O | 65.3 | > 100 | 50.7 | > 86.4 | > 100 | > 100 | > 100 | > 100 | > 70.5 | > 100 | 13.6 | 13.6 | 17.2 | 0.693 | 20.1 | 23.1 | 0.711 | 0.393 | 20.9 | 3.25
C=C1C(=O)O[C@H]2[C@H]1CC/C(COC(=O)c1cccnc1N)=C\CC[C@@]1(C)O[C@@H]21 | 24.4 | 10.3 | 10.4 | 14.5 | 16.5 | 11 | 19.4 | 11.8 | 19.2 | 6.9 | 10.1 | 1.03 | 0.539 | 3.77 | 3.54 | 2.08 | 3.19 | 3.72 | 2.32 | 0.721
CNC(=O)ON(C(C)=O)C(=O)NC | 230 | 47.7 | > 72.3 | 222 | 323 | 242 | 142 | 166 | 60.7 | 78.4 | – | > 60.8 | 7.31 | 93 | – | – | – | – | 28.8 | 94.1
Cc1ccc(/C=N/NC(=O)c2ccccc2Oc2ccccc2)o1 | > 100 | > 100 | > 100 | > 100 | > 100 | > 100 | > 100 | > 100 | > 100 | > 100 | 39.1 | 28.5 | 40 | 52.2 | 42.9 | 24.6 | 40 | 30.3 | 32.7 | 63.8
CN1CCN(CCCNC(=O)c2c3c(n4ccccc24)C(=O)c2ncccc2C3=O)CC1 | 14.1 | 5.49 | > 26.2 | 6.54 | 24.4 | 2.96 | 1.56 | 19.5 | 9 | > 80 | 2.67 | 0.866 | 0.529 | 1.48 | 1.28 | 0.413 | 1.28 | 1.37 | 1 | 0.612
NC(=O)c1c(NC(=O)c2cccs2)sc2c1CCC(=O)C2 | 48.3 | 8.88 | > 100 | > 100 | > 100 | > 100 | 2.75 | 9.52 | > 100 | 6.28 | 3.96 | 2.16 | 1.43 | 2.28 | 3.21 | 0.761 | 2.18 | 0.627 | 1.99 | 3.12
COC(=O)C1C(C(=O)O)C2(c3ccccc3)C(=O)C1(c1ccccc1)C(c1ccccc1)=C2c1ccccc1 (stereo not drawn) | 66 | 88.1 | 56.6 | > 100 | 53.1 | – | 48.3 | 38 | 32.5 | 38.5 | 24.8 | 25.8 | 23.8 | 24.2 | 20 | 15.3 | 16 | 15.2 | 19.4 | –
CC(=Nc1ccc(N(C)C)cc1)c1ccccc1 | > 100 | 77.1 | 49.9 | > 100 | – | 73.4 | 40.8 | > 100 | 99.4 | 35.4 | – | – | – | – | – | – | – | – | – | –
O=C(/C=C/c1ccccc1)c1cccc2ccccc12 | 6.32 | 14.3 | 3.75 | 6.02 | 5.13 | 12.9 | – | 3.77 | 7.78 | 18.3 | 1.99 | 3.66 | 1.17 | 2.14 | 1.99 | – | 1.89 | 2.81 | 4.16 | 3.69
